Tests used:
[1] = target: Cyclin-dependent kinase 9 (Homo sapiens) (UniProt P50750); conditions: Compound concentration 1000.0 nM
[2] = target: Calcium/calmodulin-dependent protein kinase type II subunit beta (Homo sapiens) (UniProt Q13554); conditions: Compound concentration 1000.0 nM
[3] = target: Myosin light chain kinase, smooth muscle (Homo sapiens) (UniProt Q15746); conditions: Compound concentration 1000.0 nM
[4] = system: Serine/threonine-protein kinase B-raf (Homo sapiens), P15056 [V600E]; conditions: Compound concentration 1000.0 nM
[5] = target: T1, Dual specificity mitogen-activated protein kinase kinase 7 (Homo sapiens) (UniProt O14733); conditions: Compound concentration 1000.0 nM
T1 sequence (whole entry): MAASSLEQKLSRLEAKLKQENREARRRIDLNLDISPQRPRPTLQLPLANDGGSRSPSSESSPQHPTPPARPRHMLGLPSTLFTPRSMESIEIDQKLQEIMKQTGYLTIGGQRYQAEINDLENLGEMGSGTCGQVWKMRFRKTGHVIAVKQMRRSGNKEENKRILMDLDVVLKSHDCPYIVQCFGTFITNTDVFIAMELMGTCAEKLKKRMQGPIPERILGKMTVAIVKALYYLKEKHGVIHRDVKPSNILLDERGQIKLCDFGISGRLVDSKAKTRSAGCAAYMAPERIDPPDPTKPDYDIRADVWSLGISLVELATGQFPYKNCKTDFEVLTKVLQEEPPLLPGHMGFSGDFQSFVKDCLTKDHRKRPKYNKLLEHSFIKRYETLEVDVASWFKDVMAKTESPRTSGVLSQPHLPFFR

[6] = target: Mitogen-activated protein kinase 6 (Homo sapiens) (UniProt Q16659); conditions: Compound concentration 1000.0 nM
[7] = target: Serine/threonine-protein kinase B-raf (Homo sapiens) (UniProt P15056); conditions: Compound concentration 1000.0 nM
[8] = target: Serine/threonine-protein kinase 32C (Homo sapiens) (UniProt Q86UX6); conditions: Compound concentration 1000.0 nM
[9] = target: Alpha-1B adrenergic receptor (Homo sapiens) (UniProt P35368); conditions: Compound concentration 10.0 uM
[10] = system: Receptor-type tyrosine-protein kinase FLT3 (Homo sapiens), P36888 [UNDEFINED MUTATION]; conditions: Compound concentration 1000.0 nM
[11] = target: T2, Mitogen-activated protein kinase kinase kinase 3 (Homo sapiens) (UniProt Q99759); conditions: Compound concentration 1000.0 nM
T2 sequence (whole entry): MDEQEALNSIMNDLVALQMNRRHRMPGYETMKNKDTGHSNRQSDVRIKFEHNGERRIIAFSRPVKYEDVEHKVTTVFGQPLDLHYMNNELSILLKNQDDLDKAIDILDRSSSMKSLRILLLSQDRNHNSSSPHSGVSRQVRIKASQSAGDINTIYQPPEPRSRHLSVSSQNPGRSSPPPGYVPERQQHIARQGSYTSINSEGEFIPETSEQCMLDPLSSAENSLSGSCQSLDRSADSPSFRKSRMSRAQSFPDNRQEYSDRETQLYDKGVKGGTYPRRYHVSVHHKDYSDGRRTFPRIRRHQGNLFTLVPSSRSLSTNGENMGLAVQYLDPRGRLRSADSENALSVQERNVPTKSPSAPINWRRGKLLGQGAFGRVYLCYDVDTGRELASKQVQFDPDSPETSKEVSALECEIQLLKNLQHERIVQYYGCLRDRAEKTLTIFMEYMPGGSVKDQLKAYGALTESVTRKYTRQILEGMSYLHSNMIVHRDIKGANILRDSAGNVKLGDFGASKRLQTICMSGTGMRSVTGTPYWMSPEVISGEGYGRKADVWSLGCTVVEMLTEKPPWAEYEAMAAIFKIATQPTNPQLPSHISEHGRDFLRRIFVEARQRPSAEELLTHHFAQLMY

[12] = target: Muscarinic acetylcholine receptor M1 (Homo sapiens) (UniProt P11229); conditions: Compound concentration 10.0 uM
[13] = target: RAC-beta serine/threonine-protein kinase (Homo sapiens) (UniProt P31751); conditions: Compound concentration 1000.0 nM
[14] = target: T3, Protein kinase C iota type (Homo sapiens) (UniProt P41743); conditions: Compound concentration 1000.0 nM
T3 sequence (whole entry): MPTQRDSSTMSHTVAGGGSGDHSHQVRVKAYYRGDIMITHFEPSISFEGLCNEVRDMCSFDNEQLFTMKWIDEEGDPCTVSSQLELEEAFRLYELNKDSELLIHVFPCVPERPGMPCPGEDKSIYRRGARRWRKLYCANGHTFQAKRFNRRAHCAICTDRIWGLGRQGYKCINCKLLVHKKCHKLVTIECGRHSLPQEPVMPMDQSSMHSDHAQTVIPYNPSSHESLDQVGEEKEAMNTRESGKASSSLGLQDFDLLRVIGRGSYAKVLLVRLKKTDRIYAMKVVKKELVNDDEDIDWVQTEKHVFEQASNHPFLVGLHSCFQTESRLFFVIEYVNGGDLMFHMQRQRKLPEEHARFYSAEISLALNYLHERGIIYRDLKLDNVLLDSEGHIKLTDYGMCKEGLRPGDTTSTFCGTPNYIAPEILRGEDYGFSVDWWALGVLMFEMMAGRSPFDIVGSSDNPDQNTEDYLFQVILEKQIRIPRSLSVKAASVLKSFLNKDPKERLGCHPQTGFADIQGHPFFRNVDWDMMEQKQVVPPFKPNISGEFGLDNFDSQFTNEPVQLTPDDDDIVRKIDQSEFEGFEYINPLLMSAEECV

[15] = target: Receptor tyrosine-protein kinase erbB-3 (Homo sapiens) (UniProt P21860); conditions: Compound concentration 1000.0 nM

Sequence of RAC-beta serine/threonine-protein kinase (Homo sapiens) (P31751 whole entry): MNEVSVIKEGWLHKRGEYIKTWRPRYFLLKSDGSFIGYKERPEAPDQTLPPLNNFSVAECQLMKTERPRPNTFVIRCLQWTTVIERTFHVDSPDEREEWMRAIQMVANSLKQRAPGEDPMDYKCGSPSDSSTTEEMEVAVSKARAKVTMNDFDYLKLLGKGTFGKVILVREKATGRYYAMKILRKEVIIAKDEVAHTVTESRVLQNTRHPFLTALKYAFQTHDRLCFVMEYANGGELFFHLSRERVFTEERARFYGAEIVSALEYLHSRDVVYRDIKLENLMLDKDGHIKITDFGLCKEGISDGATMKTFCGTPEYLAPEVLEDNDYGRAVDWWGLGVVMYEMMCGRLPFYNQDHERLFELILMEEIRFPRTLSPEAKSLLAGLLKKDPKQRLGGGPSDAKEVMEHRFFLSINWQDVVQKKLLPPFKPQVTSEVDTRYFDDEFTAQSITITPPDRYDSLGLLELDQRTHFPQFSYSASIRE
Sequence of Serine/threonine-protein kinase B-raf (Homo sapiens), P15056 [V600E] (P15056 whole entry V600E): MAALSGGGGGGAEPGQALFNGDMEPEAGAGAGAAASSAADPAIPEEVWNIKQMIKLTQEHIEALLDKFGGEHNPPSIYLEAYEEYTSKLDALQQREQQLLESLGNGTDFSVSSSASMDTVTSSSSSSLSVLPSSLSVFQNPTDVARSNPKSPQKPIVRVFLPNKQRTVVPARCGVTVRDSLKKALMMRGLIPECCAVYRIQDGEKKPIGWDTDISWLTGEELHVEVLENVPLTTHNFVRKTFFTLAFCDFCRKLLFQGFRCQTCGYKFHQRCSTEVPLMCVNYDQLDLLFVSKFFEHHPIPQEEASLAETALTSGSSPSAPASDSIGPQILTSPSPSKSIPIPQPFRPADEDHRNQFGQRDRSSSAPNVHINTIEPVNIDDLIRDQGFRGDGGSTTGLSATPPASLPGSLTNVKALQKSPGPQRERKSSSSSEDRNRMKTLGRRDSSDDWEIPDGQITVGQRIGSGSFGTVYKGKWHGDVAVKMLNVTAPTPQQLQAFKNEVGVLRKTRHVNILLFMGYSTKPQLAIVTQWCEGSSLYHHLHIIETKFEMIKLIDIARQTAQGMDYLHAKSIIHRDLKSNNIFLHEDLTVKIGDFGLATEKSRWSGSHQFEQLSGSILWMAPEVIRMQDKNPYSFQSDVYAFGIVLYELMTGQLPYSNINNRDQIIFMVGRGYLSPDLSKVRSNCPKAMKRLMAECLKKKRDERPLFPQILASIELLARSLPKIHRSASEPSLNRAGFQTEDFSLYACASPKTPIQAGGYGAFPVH
Sequence of Calcium/calmodulin-dependent protein kinase type II subunit beta (Homo sapiens) (Q13554 whole entry): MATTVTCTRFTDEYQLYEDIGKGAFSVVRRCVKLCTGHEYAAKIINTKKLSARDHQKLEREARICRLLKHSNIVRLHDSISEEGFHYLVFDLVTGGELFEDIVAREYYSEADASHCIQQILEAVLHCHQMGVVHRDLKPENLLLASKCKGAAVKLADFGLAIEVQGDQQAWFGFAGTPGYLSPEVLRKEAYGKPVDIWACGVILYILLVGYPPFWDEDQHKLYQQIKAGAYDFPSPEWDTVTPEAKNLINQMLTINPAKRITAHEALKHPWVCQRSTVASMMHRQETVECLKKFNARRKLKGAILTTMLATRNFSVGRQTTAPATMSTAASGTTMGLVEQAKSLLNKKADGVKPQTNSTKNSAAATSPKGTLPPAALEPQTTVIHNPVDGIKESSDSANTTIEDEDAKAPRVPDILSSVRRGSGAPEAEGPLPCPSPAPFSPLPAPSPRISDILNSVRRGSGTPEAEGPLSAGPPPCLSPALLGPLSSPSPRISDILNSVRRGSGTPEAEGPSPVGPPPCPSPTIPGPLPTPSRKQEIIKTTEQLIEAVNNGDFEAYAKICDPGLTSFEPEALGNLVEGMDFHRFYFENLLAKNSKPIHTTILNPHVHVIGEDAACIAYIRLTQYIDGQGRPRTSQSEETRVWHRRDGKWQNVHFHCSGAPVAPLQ
Sequence of Cyclin-dependent kinase 9 (Homo sapiens) (P50750 whole entry): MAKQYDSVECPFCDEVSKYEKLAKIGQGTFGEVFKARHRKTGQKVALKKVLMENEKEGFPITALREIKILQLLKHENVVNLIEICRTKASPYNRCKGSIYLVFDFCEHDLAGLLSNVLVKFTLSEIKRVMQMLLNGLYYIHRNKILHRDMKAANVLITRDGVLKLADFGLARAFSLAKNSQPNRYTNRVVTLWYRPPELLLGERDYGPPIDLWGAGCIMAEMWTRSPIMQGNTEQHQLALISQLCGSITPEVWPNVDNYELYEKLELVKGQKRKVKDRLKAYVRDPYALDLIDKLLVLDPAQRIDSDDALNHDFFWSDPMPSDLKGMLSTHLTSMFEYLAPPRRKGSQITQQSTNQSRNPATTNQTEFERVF
Sequence of Alpha-1B adrenergic receptor (Homo sapiens) (P35368 whole entry): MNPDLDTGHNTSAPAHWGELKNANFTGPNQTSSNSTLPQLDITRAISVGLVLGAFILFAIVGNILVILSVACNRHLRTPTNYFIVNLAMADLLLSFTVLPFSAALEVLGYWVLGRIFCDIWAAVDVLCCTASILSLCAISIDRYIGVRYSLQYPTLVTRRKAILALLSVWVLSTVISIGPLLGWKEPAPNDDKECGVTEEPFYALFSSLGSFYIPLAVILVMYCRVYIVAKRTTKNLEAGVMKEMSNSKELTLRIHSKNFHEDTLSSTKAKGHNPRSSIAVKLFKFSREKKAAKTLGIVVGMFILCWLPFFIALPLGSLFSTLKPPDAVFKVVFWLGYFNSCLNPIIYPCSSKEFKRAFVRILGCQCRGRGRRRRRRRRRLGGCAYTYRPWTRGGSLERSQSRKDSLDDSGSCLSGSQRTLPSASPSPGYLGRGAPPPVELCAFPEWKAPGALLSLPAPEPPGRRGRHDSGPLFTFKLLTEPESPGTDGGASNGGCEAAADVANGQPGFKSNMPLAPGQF
Sequence of Myosin light chain kinase, smooth muscle (Homo sapiens) (Q15746 whole entry): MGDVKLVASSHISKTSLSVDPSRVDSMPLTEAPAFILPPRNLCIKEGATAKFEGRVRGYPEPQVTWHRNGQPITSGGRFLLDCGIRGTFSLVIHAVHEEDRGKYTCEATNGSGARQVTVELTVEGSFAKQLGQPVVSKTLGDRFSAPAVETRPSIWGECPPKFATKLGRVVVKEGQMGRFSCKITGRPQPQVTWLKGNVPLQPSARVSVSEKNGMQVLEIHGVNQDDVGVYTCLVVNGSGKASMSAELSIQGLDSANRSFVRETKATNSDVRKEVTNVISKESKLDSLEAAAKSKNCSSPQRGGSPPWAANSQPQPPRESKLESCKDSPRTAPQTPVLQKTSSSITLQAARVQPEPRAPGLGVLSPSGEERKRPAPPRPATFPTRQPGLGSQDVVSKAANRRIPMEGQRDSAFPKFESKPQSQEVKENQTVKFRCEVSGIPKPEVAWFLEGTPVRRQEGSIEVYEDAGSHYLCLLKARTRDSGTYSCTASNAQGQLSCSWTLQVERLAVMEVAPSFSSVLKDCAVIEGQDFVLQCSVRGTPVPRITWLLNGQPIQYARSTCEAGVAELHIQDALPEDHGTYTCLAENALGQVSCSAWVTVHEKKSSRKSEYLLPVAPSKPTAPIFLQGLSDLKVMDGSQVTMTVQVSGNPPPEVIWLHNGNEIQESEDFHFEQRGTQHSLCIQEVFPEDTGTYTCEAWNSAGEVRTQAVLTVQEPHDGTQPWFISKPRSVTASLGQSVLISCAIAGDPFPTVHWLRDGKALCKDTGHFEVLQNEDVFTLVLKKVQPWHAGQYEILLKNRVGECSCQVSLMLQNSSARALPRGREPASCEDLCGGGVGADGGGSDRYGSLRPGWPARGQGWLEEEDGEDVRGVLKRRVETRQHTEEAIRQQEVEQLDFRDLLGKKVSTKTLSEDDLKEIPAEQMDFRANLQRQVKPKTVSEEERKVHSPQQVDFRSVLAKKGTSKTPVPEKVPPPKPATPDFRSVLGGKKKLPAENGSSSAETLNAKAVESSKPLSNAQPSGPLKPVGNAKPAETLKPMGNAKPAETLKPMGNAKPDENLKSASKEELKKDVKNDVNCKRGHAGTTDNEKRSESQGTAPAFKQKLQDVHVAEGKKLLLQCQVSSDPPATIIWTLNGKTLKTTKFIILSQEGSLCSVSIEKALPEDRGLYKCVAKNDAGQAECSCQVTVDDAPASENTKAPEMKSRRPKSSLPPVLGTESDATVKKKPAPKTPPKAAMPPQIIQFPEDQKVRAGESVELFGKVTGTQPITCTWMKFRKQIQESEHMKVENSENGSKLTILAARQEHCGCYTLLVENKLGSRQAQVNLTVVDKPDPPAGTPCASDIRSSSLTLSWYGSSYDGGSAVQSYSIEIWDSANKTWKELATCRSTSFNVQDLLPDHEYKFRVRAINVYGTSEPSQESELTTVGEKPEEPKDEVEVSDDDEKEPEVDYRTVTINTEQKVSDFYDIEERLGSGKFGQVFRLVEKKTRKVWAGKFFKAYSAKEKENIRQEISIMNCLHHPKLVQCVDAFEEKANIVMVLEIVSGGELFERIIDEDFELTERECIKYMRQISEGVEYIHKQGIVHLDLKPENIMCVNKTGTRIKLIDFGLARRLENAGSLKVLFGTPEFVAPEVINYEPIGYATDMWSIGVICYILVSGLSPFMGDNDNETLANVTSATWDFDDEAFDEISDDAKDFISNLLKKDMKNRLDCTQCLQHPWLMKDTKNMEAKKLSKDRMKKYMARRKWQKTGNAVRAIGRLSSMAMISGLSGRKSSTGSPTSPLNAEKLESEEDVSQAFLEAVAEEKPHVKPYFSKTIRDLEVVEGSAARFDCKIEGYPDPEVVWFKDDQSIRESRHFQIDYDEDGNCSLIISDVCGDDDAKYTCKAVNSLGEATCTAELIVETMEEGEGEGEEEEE
Sequence of Serine/threonine-protein kinase B-raf (Homo sapiens) (P15056 whole entry): as the sequence (P15056 whole entry V600E) above, with E600V counted along it

Cc1nc(C2CCN(C(=O)c3ccc(OC(F)(F)F)cc3N)CC2)c2ncc(N3CCN(C)CC3)cc2n1 [BAY-693]
inactive: residual activity [1] 79% | residual activity [2] 100% | residual activity [3] 100% | residual activity [4] 100% | residual activity [5] 86% | residual activity [6] 100% | residual activity [7] 100% | residual activity [8] 100% | inhibition [9] 20.2% | residual activity [10] 100% | residual activity [11] 92% | inhibition [12] 2.76% | residual activity [13] 100% | residual activity [14] 81% | residual activity [15] 88%

CN1CCN(c2cnc3c(C4CCN(C(=O)c5ccc(OC(F)(F)F)cc5N)CC4)ncnc3c2)CC1 [BAY-885]
inactive: residual activity [1] 100% | residual activity [2] 100% | residual activity [3] 88% | residual activity [4] 100% | residual activity [5] 100% | residual activity [6] 100% | residual activity [7] 100% | residual activity [8] 100% | inhibition [9] 16.4% | residual activity [10] 88% | residual activity [11] 94% | inhibition [12] 3.17% | residual activity [13] 100% | residual activity [14] 77% | residual activity [15] 84%
